The results in this text go back to PMC12267471, “Discovery of natural scaffolds as HER2 inhibitors for breast cancer: virtual screening, molecular dynamics, and biological characterization with selectivity profiling” (Scientific Reports, 2025).

The subject of one experiment is MCF10A cells. Description: MTT cytotoxicity assay, non-tumorigenic MCF10A. In kind it is cell-based, human.
Another experiment relates to BT-474 cells. Description: Transwell cell migration assay, BT-474. In kind it is cell-based. The following applies: Homo sapiens; BT-474, 3.5 µM, 24 h; read-out: inhibition of migration relative to vehicle-treated cells. The method, then: The in vitro transwell migration assay was conducted using an HTS-96 transwell permeable support chamber with 8 μm pores (Corning, USA) equipped with polyvinylpyrrolidone-free polycarbonate (PVPF) filters. […] The plate was incubated for 24 h at 37 °C. Then, the transwell inserts were incubated in the receiver plate with Calcein AM/cell dissociation solution at 37 °C in 5% CO2 incubator for 1 h, followed by measuring the fluorescence using a fluorescence plate reader with 485 nm excitation and 520 nm emission filter package. The relative fluorescence units were converted to cell count using a standard curve. The number of cells that moved to the lower side of the filter was used to assess migratory characteristics. The experiment in both cell lines was conducted in triplicate and data are presented as the mean ± SD.

Experiment [1] has as its system HER2 protein in SKBR3 cells. Description: Western blot of p-HER2 and t-HER2, SKBR3. The experiment is classed as cell-based, human. The conditions noted are these: SKBR3, 10 µM, 72 h. Here is the method:
SKBR3 and BT-474 were plated in RPMI-1640 media, washed, and incubated for 72 h. They were lysed in cold lysis buffer, frozen, collected, sonicated, and centrifuged for 10 min under cooling. The stacking and resolving solutions for polyacrylamide gels were prepared using various solutions, including 30% acrylamide, 0.5 M Tris, 10% SDS, 10% Ammonium persulfate, and 0.005 mL TEMED in 3.4 mL water and 3.3 mL water respectively. The ReadyPrepTM protein extraction kit was used to extract total protein from samples. Protein concentration was determined using the Bradford Protein Assay Kit. Samples were mixed with Laemmli sample buffer, pH adjusted and boiled for five minutes at 95 °C before loading onto SDS-polyacrylamide gels. Proteins in each sample were mixed, boiled, and loaded onto SDS-polyacrylamide gels. They were separated using the SDS-PAGE method, using the TGX Stain-Free™ FastCast™ Acrylamide Kit and a Cleaver electrophoresis unit. Proteins were transferred from gels to PVDF membranes using transfer sandwiches. Filter paper, membrane, gel, and filter paper were stacked in a sandwich. Gels were blotted onto PVDF membranes via electrophoresis using a Bio-Rad Semi-dry Electroblotter for 30 min. […] The intensity of each band was quantitated using ImageLab.
For orientation: In western blotting, separated proteins are transferred to a membrane and probed.

Another experiment concerns the target ALK (Homo sapiens, UniProt Q9UM73). Nature of the experiment: SelectScreen Z'-LYTE kinase profiling. In kind it is biochemical. Here is the method:
(§1) Liquiritin was screened at 0.1 µM dose against a panel of 15 human kinases using SelectScreen® kinase profiling services offered by ThermoFisher Scientific™ (Madison, WI, USA). The percent inhibition of Liquiritin was assessed against each kinase in an automated high-throughput screening system using the time-resolved fluorescence resonance energy transfer Z´-LYTE™ kinase assay. Technology overview, protocols, and assay conditions are accessible at https://x.gd/UgBBB.

A further experiment concerns the target EGFR (ErbB1) (Homo sapiens, UniProt P00533). Nature of the experiment: SelectScreen Z'-LYTE kinase profiling. The experiment is classed as biochemical. Here is the method: as §1
The target of the next experiment is ERBB2 (HER2) (Homo sapiens, UniProt P04626). Nature of the experiment: SelectScreen Z'-LYTE kinase profiling. The experiment is classed as biochemical. Here is the method:
as §1

In the next experiment the target is ERBB4 (HER4) (Homo sapiens, UniProt Q15303). Nature of the experiment: SelectScreen Z'-LYTE kinase profiling. The experiment is classed as biochemical. Here is the method: as §1
Another experiment concerns the target FGFR1 (Homo sapiens, UniProt P11362). Nature of the experiment: SelectScreen Z'-LYTE kinase profiling. In kind it is biochemical. The method, then:
as §1

For the next experiment, the target named is FLT1 (VEGFR1) (Homo sapiens, UniProt P17948). Nature of the experiment: SelectScreen Z'-LYTE kinase profiling. The experiment is classed as biochemical. Here is the method:
as §1

For another experiment, the target named is IGF1R (Homo sapiens, UniProt P08069). Nature of the experiment: SelectScreen Z'-LYTE kinase profiling. The experiment is classed as biochemical. Here is the method: as §1
Another experiment concerns the target KDR (VEGFR2) (Homo sapiens, UniProt P35968). Description: SelectScreen Z'-LYTE kinase profiling. In kind it is biochemical. The method, then: as §1
The next experiment addresses KIT (Homo sapiens, UniProt P10721). Description: SelectScreen Z'-LYTE kinase profiling. The experiment is classed as biochemical. The method, then: as §1
The next experiment deals with MET (cMet) (Homo sapiens, UniProt P08581). Nature of the experiment: SelectScreen Z'-LYTE kinase profiling. The experiment is classed as biochemical. The method, then: as §1
For another experiment, the target named is MST1R (RON) (Homo sapiens, UniProt Q04912). Nature of the experiment: SelectScreen Z'-LYTE kinase profiling. In kind it is biochemical. Here is the method: as §1
A further experiment addresses PDGFRB (PDGFR beta) (Homo sapiens, UniProt P09619). Nature of the experiment: SelectScreen Z'-LYTE kinase profiling. In kind it is biochemical. The method, then:
as §1

Another experiment concerns the target RET (Homo sapiens, UniProt P07949). Nature of the experiment: SelectScreen Z'-LYTE kinase profiling. The experiment is classed as biochemical. Here is the method: as §1
The target of the next experiment is ROS1 (Homo sapiens, UniProt P08922). Description: SelectScreen Z'-LYTE kinase profiling. The experiment is classed as biochemical. The method, then: as §1
Another experiment addresses TYRO3 (RSE) (Homo sapiens, UniProt Q06418). Description: SelectScreen Z'-LYTE kinase profiling. The experiment is classed as biochemical. Here is the method:
as §1

Bounds are passed on as bounds.

Sequence of ERBB4 (HER4) (Q15303 26-1308): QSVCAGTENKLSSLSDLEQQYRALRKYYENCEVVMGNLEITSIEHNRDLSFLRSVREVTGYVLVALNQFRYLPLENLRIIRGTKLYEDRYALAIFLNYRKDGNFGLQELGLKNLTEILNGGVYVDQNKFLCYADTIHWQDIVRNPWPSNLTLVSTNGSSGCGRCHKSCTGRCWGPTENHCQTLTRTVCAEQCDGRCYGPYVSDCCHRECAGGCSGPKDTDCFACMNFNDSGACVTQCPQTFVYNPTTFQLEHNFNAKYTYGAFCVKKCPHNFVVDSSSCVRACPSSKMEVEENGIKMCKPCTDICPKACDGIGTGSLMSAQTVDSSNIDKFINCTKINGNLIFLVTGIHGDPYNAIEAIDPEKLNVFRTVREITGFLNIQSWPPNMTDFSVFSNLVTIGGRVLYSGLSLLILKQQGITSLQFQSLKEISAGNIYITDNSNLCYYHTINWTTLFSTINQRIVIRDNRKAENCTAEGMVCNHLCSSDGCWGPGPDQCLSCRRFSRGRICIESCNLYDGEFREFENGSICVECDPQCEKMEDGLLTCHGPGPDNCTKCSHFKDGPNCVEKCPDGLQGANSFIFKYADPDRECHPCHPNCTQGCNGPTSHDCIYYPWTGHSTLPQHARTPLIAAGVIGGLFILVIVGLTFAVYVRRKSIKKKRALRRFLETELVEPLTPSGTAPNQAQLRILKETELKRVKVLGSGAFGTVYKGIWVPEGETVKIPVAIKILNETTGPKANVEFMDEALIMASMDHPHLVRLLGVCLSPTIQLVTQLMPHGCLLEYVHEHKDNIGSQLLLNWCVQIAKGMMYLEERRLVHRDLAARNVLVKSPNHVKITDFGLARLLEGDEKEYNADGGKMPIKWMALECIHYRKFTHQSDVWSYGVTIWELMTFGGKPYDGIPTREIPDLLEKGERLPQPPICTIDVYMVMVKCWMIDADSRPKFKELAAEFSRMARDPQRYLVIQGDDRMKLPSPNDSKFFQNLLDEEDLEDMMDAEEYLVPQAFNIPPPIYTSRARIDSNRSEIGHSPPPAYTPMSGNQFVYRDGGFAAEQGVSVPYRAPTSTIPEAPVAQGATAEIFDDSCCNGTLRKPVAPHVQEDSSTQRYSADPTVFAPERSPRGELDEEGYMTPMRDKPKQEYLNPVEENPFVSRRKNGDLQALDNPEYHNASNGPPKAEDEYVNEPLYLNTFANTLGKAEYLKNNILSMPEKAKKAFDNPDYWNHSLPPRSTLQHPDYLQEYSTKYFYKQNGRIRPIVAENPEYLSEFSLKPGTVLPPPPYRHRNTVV
Sequence of ERBB2 (HER2) (P04626 23-1255): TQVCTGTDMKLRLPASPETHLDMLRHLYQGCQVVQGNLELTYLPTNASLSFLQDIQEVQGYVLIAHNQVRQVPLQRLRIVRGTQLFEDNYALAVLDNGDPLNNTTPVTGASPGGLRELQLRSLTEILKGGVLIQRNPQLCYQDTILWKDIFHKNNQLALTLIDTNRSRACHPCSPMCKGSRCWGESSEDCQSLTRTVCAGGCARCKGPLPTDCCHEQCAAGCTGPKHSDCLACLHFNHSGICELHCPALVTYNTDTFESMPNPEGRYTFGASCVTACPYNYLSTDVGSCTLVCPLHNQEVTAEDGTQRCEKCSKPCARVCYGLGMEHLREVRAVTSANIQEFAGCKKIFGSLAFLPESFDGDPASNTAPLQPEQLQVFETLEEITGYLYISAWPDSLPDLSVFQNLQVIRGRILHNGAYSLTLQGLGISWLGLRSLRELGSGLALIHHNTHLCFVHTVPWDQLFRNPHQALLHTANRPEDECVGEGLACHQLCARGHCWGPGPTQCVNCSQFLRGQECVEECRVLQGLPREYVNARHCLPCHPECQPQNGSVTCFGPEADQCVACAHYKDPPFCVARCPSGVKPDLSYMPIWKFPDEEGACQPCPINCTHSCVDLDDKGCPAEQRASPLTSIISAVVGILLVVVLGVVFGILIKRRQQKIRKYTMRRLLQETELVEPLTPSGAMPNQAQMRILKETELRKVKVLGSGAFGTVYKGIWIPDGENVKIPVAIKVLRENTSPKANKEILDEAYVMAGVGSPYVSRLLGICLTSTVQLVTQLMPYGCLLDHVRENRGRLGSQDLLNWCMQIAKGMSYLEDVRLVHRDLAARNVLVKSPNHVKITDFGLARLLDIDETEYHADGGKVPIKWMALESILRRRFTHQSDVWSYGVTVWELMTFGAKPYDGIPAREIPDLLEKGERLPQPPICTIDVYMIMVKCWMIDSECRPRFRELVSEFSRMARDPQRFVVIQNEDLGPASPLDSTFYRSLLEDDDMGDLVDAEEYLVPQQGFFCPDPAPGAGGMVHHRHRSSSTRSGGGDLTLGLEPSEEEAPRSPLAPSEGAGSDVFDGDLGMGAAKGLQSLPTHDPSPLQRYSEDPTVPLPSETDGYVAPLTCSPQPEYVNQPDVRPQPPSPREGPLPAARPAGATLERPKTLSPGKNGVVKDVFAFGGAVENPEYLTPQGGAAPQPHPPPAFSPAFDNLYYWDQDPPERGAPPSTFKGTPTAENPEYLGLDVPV
Sequence of EGFR (ErbB1) (P00533 25-1210): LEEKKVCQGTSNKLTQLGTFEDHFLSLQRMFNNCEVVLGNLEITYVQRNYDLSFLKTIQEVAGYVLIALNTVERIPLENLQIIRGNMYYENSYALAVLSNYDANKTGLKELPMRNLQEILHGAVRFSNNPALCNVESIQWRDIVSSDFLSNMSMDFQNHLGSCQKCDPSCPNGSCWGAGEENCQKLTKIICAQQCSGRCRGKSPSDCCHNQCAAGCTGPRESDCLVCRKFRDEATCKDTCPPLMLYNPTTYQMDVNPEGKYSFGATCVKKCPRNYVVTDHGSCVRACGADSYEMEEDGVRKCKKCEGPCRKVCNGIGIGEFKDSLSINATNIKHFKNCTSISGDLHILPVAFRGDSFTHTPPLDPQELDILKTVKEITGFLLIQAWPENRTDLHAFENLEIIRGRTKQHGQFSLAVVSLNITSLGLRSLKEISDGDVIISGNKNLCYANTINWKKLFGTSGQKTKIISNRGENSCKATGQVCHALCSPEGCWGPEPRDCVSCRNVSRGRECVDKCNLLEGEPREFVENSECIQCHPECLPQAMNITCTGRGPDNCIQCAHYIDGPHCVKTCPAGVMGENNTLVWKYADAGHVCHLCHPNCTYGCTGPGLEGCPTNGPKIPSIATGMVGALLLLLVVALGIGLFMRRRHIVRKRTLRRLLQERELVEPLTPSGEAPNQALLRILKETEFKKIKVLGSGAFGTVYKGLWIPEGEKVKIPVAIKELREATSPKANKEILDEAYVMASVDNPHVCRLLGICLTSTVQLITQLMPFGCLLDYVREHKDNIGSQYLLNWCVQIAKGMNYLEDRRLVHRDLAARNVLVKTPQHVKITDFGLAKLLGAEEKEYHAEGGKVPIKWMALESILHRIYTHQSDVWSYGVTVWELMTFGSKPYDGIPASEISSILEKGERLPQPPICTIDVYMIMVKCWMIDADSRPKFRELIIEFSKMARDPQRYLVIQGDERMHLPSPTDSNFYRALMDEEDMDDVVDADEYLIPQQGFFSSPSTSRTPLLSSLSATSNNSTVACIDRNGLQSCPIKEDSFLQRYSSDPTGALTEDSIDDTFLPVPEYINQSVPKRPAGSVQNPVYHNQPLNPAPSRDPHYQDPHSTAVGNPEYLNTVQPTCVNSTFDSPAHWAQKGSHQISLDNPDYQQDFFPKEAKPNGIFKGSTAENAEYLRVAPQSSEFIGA
Sequence of FGFR1 (P11362 22-822): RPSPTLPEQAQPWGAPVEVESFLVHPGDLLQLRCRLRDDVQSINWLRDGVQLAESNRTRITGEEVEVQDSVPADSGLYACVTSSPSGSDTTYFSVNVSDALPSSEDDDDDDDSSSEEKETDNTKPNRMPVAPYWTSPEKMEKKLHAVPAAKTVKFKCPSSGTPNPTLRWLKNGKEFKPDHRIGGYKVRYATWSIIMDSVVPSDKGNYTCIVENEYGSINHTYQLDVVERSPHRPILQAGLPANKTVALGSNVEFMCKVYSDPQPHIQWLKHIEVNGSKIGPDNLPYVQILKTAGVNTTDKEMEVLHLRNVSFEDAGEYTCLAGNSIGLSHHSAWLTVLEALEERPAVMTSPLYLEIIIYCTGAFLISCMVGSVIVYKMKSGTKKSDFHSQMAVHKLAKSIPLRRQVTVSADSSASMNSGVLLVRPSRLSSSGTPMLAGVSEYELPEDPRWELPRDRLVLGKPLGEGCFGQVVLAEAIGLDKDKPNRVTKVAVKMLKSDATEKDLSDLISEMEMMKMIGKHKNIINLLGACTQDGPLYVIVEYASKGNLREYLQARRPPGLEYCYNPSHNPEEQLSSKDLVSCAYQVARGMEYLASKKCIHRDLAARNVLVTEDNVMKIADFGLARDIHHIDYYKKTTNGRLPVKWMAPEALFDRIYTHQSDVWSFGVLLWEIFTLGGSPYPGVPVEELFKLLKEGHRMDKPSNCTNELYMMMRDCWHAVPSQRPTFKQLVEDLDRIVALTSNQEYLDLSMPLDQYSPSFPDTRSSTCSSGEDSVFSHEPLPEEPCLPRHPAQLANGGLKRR

Regarding `O=C1C[C@@H](c2ccc(O[C@@H]3O[C@H](CO)[C@@H](O)[C@H](O)[C@H]3O)cc2)Oc2cc(O)ccc21` [Liquiritin], the IC50 in the experiment on MCF10A cells (Homo sapiens, MCF-10A, MCF10A, MTT, 24 h) came to 27.9 ± 1.1 µM. For the same compound, the “selectivity index (SI)” value with MCF10A cells (IC50 MCF10A / IC50 BT-474) worked out at 8; in the experiment with MCF10A cells (IC50 MCF10A / IC50 SKBR3), 4.4. Moreover, the inhibition at 3.5 µM in the experiment with BT-474 cells is around 76%. Further, the “total expression levels of HER2 protein” value in [1] is reported as “comparable suppressive effects”. Besides, in experiment [1] (vs vehicle), the HER2 phosphorylation entry is given as “significantly inhibited HER2 phosphorylation”. For the same compound, the inhibition at 0.1 µM against ALK is 7%; against EGFR (ErbB1), above 80%; against ERBB2 (HER2), above 80%; against ERBB4 (HER4), above 80%; against FGFR1 it was 7%; at FLT1 (VEGFR1), 2%. In addition, the inhibition at 0.1 µM was 4% against IGF1R; 4% at KDR (VEGFR2); 0% on KIT; 5% against MET (cMet); 7% against MST1R (RON); 4% at PDGFRB (PDGFR beta). In addition, the values for the inhibition at 0.1 µM against RET, at ROS1 and at TYRO3 (RSE) were 2%, 8% and 5%, respectively. Besides, the “Mean inhibition (%)” value at EGFR (ErbB1) (0.1 µM) turned out to be 99%; on ERBB2 (HER2) (0.1 µM), 92%; on ERBB4 (HER4) (0.1 µM), 88%.

The IC50 is the point on the concentration scale where inhibition reaches its midpoint.
